{
  "source": "patent US10945995B2",
  "about": "“Compositions and methods for channelopathy disorders-targeting fluid movement across membranes” (DEHA, LLC, priority 2017, dated 2021)",
  "key": {"[1]": {"system": "rat traumatic brain injury model", "conditions": "cited from earlier work"}, "AQP-4 [2]": {"system": "AQP-4", "conditions": "rat model of epilepsy; cited from earlier work"}, "AQP-11": {"biological_target": "T1, AQP-11 (Homo sapiens, UniProt Q8NBQ7)", "T1 construct": "expressed in transfected cells", "T1 sequence (Q8NBQ7 1-271)": "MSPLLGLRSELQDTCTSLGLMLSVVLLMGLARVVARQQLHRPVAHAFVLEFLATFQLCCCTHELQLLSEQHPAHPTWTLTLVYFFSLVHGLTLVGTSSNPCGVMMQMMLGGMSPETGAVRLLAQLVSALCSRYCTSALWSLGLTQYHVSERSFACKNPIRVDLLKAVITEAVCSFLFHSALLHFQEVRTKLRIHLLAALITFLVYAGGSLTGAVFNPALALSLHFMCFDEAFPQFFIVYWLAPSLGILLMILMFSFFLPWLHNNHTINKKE", "experiment": "Kinetic screening assay, cells overexpressing AQP-11", "assay_type": "cell-based"}, "AQP-2": {"biological_target": "T2, AQP-2 (Homo sapiens, UniProt P41181)", "T2 construct": "expressed in transfected cells", "T2 sequence (P41181 1-271)": "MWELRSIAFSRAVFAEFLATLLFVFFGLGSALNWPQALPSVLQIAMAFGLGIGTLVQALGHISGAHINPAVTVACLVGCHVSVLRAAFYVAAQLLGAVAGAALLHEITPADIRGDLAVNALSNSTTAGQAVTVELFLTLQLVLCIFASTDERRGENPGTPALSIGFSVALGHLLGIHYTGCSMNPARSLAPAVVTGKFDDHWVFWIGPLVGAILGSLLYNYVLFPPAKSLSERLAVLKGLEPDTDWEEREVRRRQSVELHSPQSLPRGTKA", "experiment": "Kinetic screening assay, cells overexpressing AQP-2", "assay_type": "cell-based", "excerpt": "Effects of candidate AQP-4 inhibitors on cell swelling in vitro. Kinetic screening assay: In order to assess the effects of the resulting 50 compounds selected from in silico screening efforts on cell swelling, a calcein-fluorescence assay that measures plasma membrane water permeability was used. Alvarez-Leefmans et al. established a technique to estimate changes in cell volume as a function of changes in concentration using a calcein-AM, a non-fluorescent and membrane-permeant dye.^53 After entering the cell, calcein-AM is converted to calcein by removal of the acetoxymethyl group (AM) by intracellular esterases. […] The fluorescence signal is calibrated by brief exposures of the calcein-loaded cells to, for example, 15% hypotonic and 15% hypertonic solutions and the average signal intensity from the cell is detected. […] The test compounds were then added (4-9 μM) and the fluorescence was measured using a Biotek plate reader (excitation 490 nm and emission 515 nm). Relative fluorescence intensity (RfU) was calculated as the fluorescence intensity of each well divided by the mean fluorescence intensity of cells treated with DMSO (control). […]\nAQP-2 DHA-35. Using the kinetic screening assay described hereinabove, cells overexpressing AQP-2 were screened with test compounds of interest and their fluorescence signal were evaluated. […]"}, "AQP-6": {"biological_target": "T3, AQP-6 (Homo sapiens, UniProt Q13520)", "T3 construct": "expressed in transfected cells", "T3 sequence (Q13520 1-282)": "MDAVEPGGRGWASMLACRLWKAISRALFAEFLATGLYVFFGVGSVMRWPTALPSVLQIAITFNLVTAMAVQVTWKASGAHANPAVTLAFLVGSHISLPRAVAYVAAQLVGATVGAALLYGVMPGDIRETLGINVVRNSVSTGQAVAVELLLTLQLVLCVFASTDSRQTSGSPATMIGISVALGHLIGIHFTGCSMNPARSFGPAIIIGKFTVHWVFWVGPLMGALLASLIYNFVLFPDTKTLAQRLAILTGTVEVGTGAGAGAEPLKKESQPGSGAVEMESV", "experiment": "Kinetic screening assay, cells overexpressing AQP-6", "assay_type": "cell-based"}, "AQP-4 [3]": {"system": "AQP-4", "conditions": "pre-treatment, mouse model of stroke; cited from earlier work"}},
  "data": [
    {"smiles": "CC(=O)Nc1nnc(S(N)(=O)=O)s1", "note": "[Acetazolamide, acetazolamide]", "values": [
      {"measurement": "edema", "setting": "[1]", "result": "reduce edema"},
      {"measurement": "AQP-4 inhibition in vivo", "setting": "AQP-4 [2]", "result": "inhibit AQP-4"}
    ]},
    {"smiles": "C=CCn1nc(C(=O)N2CCCCCC2)c2c1CCC(NCCCN1CCCC1=O)C2", "note": "(stereo not shown) [DHA-6]", "values": [
      {"measurement": "AQP-11 activity, fluorescence signal", "setting": "AQP-11", "result": "modulators"}
    ]},
    {"smiles": "CSc1ccc(C(=O)NC(c2ccc3c(c2)CCO3)[C@H]2C[C@@H](O)C2)cc1", "note": "(stereo partly shown) [DHA-35]", "values": [
      {"measurement": "AQP-2 activity, fluorescence signal", "setting": "AQP-2", "result": "inhibitor"}
    ]},
    {"smiles": "COCC(C)n1c(CCCC(=O)N2CCC3(CC2)CNC(=O)C3)nc2cccnc21", "note": "(stereo not shown) [DHA-36]", "values": [
      {"measurement": "AQP-6 activity, fluorescence signal", "setting": "AQP-6", "result": "inhibitor"}
    ]},
    {"smiles": "Cc1onc(-c2ccccc2)c1C(=O)NCc1nnc(SCc2ccccc2Cl)n1CC(C)C", "note": "[DHA-37]", "values": [
      {"measurement": "AQP-11 activity, fluorescence signal", "setting": "AQP-11", "result": "modulators"}
    ]},
    {"smiles": "O=C(Nc1nncs1)c1cccnc1", "note": "[TGN-020, 2-(nicotinamide)-1,3,4-thiadiazole]", "values": [
      {"measurement": "edema and infarct size", "setting": "AQP-4 [3]", "result": "reduce edema and infarct size"}
    ]}
  ]
}
